Assay results from patent US20250145600A1, “2-((4-((S)-2-(4-CHLORO-2-FLUOROPHENYL)-2-METHYLBENZO[D][1,3]DIOXOL-4-YL)PIPERIDIN-1-YL)METHYL)-1-(((S)-OXETAN-2-YL)METHYL)-1H-IMIDAZOLE DERIVATIVES AS ACTIVATORS OF THE GLP1 RECEPTOR FOR THE TREATMENT OF OBESITY” (Novartis AG, priority 2022, published 2025).

Biological target: human GLP1R (Homo sapiens, UniProt P43220)
Experiment: Human GLP1R DERET internalization assay
Format: cell-based
Conditions: HEK293-SNAP-hGLP1R-GloSensor cells
Protocol: Compounds of formula (I) according to the invention were tested in the following cellular assays that measure the intracellular cAMP concentration, beta-arrestin recruitment and receptor internalization. The cAMP is generated by the activation of GLP1R. The extent to which the GLP1R is internalized into the cell and away from the plasma membrane following activation is also shown in Table 2. EC50 for each assay is defined as the concentration of the compound that leads to half of the maximum response (after baseline correction). Emax is defined as the maximum response observed for the test compound, normalized to the maximum response observed for the endogenous ligand (GLP1(7-36)) to GLP1R.
Human GLP1R DERET Internalization Assay
The extent to which agonists internalize the human GLP1R was determined based on an optimized version of a RealTime FRET-based ‘DERET’ (Dissociation Enhanced Resonance Energy Transfer) assay. The technology relies on labeling of the SNAP-tagged GPCR with a SNAP-Lumi-Terbium (donor fluorophore, Cisbio, cat #SSNPTBD). The compounds are incubated with the cells over-expressing the GPCR of interest in the presence of an excess of fluorescein (acceptor fluorophore). When the GPCR is on the cell surface, the donor signal is quenched by the acceptor and the donor/acceptor ratio is low. As the GPCR internalizes, the donor signal is no longer quenched, and the acceptor is no longer excited so the donor/acceptor ratio increases.
HEK293-SNAP-hGLP1R-GloSensor cells (stably overexpressing SNAP-tagged hGLP1R) were seeded overnight in white 384-well poly-D-Lysine coated plates (Greiner Bio One, cat #781945) in regular DMEM growth medium (Gibco, cat #11965-092, 10% heat-inactivated FBS, 10 mM HEPES, 1× penicillin/streptomycin, 0.5 mg/mL geneticin (Gibco, cat #10131-035) and 0.25 mg/mL hygromycin B (Invitrogen, cat #10687010). On the assay day, cell medium was removed and 100 nM SNAP-Lumi-Tb reagent was added in Opti-MEM solution. The cells were incubated at 37° C. for 1 h. Cells were washed using a plate washer in assay buffer [1×HBSS (10× Gibco, cat #14065-056), 20 mM Hepes (Gibco, cat #15630-080), 1 mM CaCl2 (Fluka, cat #21114-1L), 1 mM MgCl2 (Ambion, cat #AM9530G) pH7.4], and 20 μL buffer with 0.1% BSA was added to each well. After leaving cells to equilibrate for […] at 37° C., 10 μL of Fluorescein (sodium salt, Sigma, cat #F6377, diluted in buffer) was added at 25 μM final concentration. To generate triplicate dose response curves, compounds were serially diluted 3-fold in assay buffer, then added to the cell assay plate to a final volume of 40 μL and final top concentrations starting at 30 μM. In the same plate and assay buffer as the tested compounds, a GLP1 (7-36) peptide (Bachem, cat #H-6795) control curve was included at a final top concentration of 1 μM in order to establish EC100. EC0 wells with buffer only were also included. The plate FRET fluorescence was measured immediately using a Perkin Elmer Envision with LANCE/DELFIA D400 single mirror, excitation filter X320, and emission filters M615_203 (donor emission) and M515 (acceptor emission), and then measured every 30 min. […] Plates were kept at 37° C. between reads. Data was expressed as the ratio of donor/acceptor emissions using Microsoft Excel and plotted in GraphPad Prism. In order to determine EC50 and Emax for internalization, data was calculated and expressed as percent of the GLP1 (7-36) EC100 control wells: [(sample signal−mean EC0 signal)/(mean EC100 of GLP1 (7-36) signal−mean EC0 signal)]*100 using Microsoft Excel. Curve fitting for EC50 determinations was performed using GraphPad Prism. The 4-parameter logistic model, Hill slope was used:
where Y is the functional response; X is the compound concentration; bottom is A0 or the minimum value (at 0 dose); top is Ainf or the maximum value (at infinite dose); EC50 is the point of inflection (i.e. the point on the sigmoid shaped curve halfway between A0 and Ainf). […]

Sequence of human GLP1R (P43220 24-463): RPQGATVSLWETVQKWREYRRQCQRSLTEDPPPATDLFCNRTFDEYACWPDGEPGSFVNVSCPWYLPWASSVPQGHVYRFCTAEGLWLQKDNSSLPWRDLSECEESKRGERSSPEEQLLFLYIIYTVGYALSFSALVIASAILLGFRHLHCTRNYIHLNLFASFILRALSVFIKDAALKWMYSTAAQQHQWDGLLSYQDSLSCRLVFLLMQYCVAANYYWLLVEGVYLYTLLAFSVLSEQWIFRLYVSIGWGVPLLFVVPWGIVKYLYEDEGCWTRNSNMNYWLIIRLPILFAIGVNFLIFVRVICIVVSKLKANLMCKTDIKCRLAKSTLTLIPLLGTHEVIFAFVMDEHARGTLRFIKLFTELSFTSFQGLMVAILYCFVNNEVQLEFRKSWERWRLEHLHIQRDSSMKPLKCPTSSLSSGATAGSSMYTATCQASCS

Cc1c(-c2ccc(C(=O)O)o2)nc(CN2CCC(c3cccc4c3O[C@@](C)(c3ccc(Cl)cc3F)O4)CC2)n1C[C@@H]1CCO1 [Compound C-24, 5-(2-((4-((S)-2-(4-chloro-2-fluorophenyl)-2-methylbenzo[d][1,3]dioxol-4-yl)piperidin-1-yl)methyl)-5-methyl-1-(((S)-oxetan-2-yl)methyl)-1H-imidazol-4-yl)furan-2-carboxylic acid]
EC50 (top concentration 30 μM): 490 nM | Emax (relative to GLP1(7-36)): 19%
